Results as given in patent US10695296B2, “Formulations, methods, kit, and dosage forms for improved stability of an active pharmaceutical ingredient” (Asana BioSciences, LLC, priority 2017, dated 2020).

Assay: Dissolution, USP <711> Apparatus 2 paddle method at 50 rpm
Assay type: physicochemical
Conditions: 500 ml 0.01 N HCl or 50 mM phosphate buffer (pH 6.8), 0.5% sodium lauryl sulfate, paddle 50 rpm
Procedure: The dissolution characteristics of the spray-dried formulation prepared in Example 2 above were measured by suspending the formulation in 500 ml 0.01 N HCl or 50 mM phosphate buffer (pH 6.8), 0.5% sodium lauryl sulfate, and measuring dissolution by the USP <711> Apparatus 2 (paddle method) at 50 rpm. As a control, particles of crystalline active ingredient N-(3-(2-(6-amino-4-(trifluoromethyl)pyridin-3-yl)-4-morpholinopyrido[3,2-d]pyrimidin-6-yl)-2-fluorophenyl)-3-fluoropropane-1-sulfonamide (as prepared in Example 7 below) was suspended in either 500 ml 0.01 N HCl or 50 mM phosphate buffer (pH 6.8), 0.5% sodium lauryl sulfate and dissolution measured by the same method.

With `Nc1cc(C(F)(F)F)c(-c2nc(N3CCOCC3)c3nc(-c4cccc(NS(=O)(=O)CCCF)c4F)ccc3n2)cn1` [crystalline active ingredient, N-(3-(2-(6-amino-4-(trifluoromethyl)pyridin-3-yl)-4-morpholinopyrido[3,2-d]pyrimidin-6-yl)-2-fluorophenyl)-3-fluoropropane-1-sulfonamide] the “dissolution state after 60 minutes” value was “still not fully dissolved”.
